Holding throughout (assay type): cell-based
One test deals with HCT-116 colon carcinoma. Put plainly: Cell proliferation assay (14C-thymidine incorporation), HCT-116. The note with it: Homo sapiens, read-out: Inhibition of cell proliferation IC50. The method, then:
(§1) The ability of a test compound to inhibit the proliferation of cell growth was determined by measuring incorporation of ^14C-labelled thymidine into newly synthesized DNA within the cells. This method was used on cell lines derived from carcinomas originating from several tissues such as HeLa cervical adenocarcinoma (American Type Culture Collection (ATCC), Virginia, Cat. #CCL-2), A375 malignant melanoma (ATCC CRL-1619), SK-OV-3 ovarian adenocarcinoma (ATCC HTB-77) HCT-116 colon carcinoma (CCL-247) and PC-3 prostate adenocarcinoma (ATCC CRL-1435). The method was also used on primary cells such as HUVEC endothelial cells (ATCC CRL-1730). In this way the effect of a compound on cell growth of cells with many different phenotypes can be determined. Cells were trypsinized and counted and 3000-8000 cells were added to each well of a 96-well CytoStar tissue culture treated scintillating microplate (Amersham #RPNQ0160) in complete medium in a volume of 100 μl. Cells were incubated for 24 hours in complete medium at 37° C. in an atmosphere containing 5% CO2.
(§2) Next, 1 μl of test compound in 100% DMSO was added to the wells of the plate. DMSO only was added to control wells. Cells were incubated for 24 more hours in complete medium at 37° C. in an atmosphere containing 5% CO2. Methyl ^14C-thymidine 56 mCi/mmol (NEN #NEC568 or Amersham #CFA532) was diluted in complete medium and 0.2 μCi/well was added to each well of the CytoStar plate in a volume of 20 μl. The plate was incubated for 24 hours at 37° C. plus 5% CO2 in drug plus ^14C-thymidine. The contents of the plate were discarded into a ^14C radioactive waste container by inverting the plate and the plate was washed twice with 200 μl PBS. 200 μl of PBS is then added to each well. The top of the plate was sealed with a transparent plate sealer and a white plate backing sealer (Packard #6005199) was applied to the bottom of the plate. The degree of Methyl ^14C-thymidine incorporation was quantified on a Packard Top Count.
For orientation: Dividing cells build labelled thymidine or BrdU into new DNA.

For another test, the system named is rat aortic ring. Put plainly: Rat aortic ring assay (vascular sprouting). The note with it: 192 h; rat aortic ring in fibrin gel, analyzed on day 8; read-out: Inhibition of Vascular Sprouting (IC50μM). The method, then:
The rat aortic ring assay is a rapid in vitro assay that measures new capillary growth in an environment that closely approximates the in vivo conditions of the extracellular matrix. The assay was performed as described (Nicosia, R F and Ottinetti, A. Growth of new microvessels in serum-free matrix culture of rat aorta. Lab Invest., 63: 115-122, 1990). Thoracic aortas were removed from 1 to 2-month old male Sprague-Dawley rats and transferred to a culture dish containing serum-free MCDB 131 medium (Clonetics). Extraneous tissue was removed and the aorta was sectioned into rings approximately 1 mm long and rinsed 8-10 times in serum-free medium. A solution of sterile 1.5% agarose (Type VI-A, Sigma, St. Louis, Mo.) was added to the wells of a 6-well plate. The wells were filled with clotting fibrinogen solution and an aortic ring was transferred into the well positioned with the lumen oriented horizontally in the center of the fibrin gel solution. The fibrinogen solution was prepared in MCDB 131 medium with bovine fibrinogen at 3 mg/ml. Clotting was initiated by adding 20 μl of a 50 NIH units/ml bovine thrombin solution and the fibrin gel generally formed within 30 seconds. The fibrinolytic inhibitor amino-n-caproic acid was added to the culture medium at 300 µg/ml (microgram per milliliter) for the first four days of the assay and at 50 μg/ml from day 5 to day 8. Once the fibrin gel solution solidified, 5 ml of serum-free MCDB 131 media containing 100 μg/ml penicillin, 100 μg/ml streptomycin and 0.25 μg/ml amphotericin B was added to each well. Explants were incubated at 37° C. with 5% CO2 for 8 days. Medium was replaced every 2-3 days and the assay was analyzed on day 8. Inhibition of vascular sprouting was measured by adding test compounds diluted in DMSO.

For test [1], the system named is PC-3 prostate adenocarcinoma. The test can be described thus: Cell proliferation assay (14C-thymidine incorporation), PC-3. The note with it: Homo sapiens, read-out: Inhibition of cell proliferation IC50. The method, boiled down:
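Cells plated 24 h, then compound in DMSO added for 24 h before 0.2 μCi/well methyl-14C-thymidine and another 24 h at 37° C., 5% CO2 with drug present. Incorporated 14C-thymidine counted in scintillating plates after PBS washes; DMSO-only wells as controls.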

Another test deals with MDA-MB-231. The test can be described thus: Cell proliferation assay (14C-thymidine incorporation), MDA-MB-231. The note with it: Homo sapiens, read-out: Inhibition of cell proliferation IC50. As for the experimental part: as §1, §2

We go through one molecule from patent US6710048B2, “Pyrazine derivatives as modulators of tyrosine kinases” (Ortho-McNeil Pharmaceutical, Inc., priority 2000, dated 2004).

Consider `CN(C)CCNc1cncc(-c2cncc(Nc3cccc(Cl)c3)n2)c1` [Cmd 33, N′-[5-[6-[(3-chlorophenyl)amino]pyrazinyl]-3-pyridinyl]-N^2,N^2-dimethyl-1,2-ethanediamine], for which the IC50 was over 100 µM with HCT-116 colon carcinoma, over 1 µM in the test with rat aortic ring, 22.9 µM in test [1] and 12.7 µM with MDA-MB-231.
